# From patent publication US10517889B2, “Modulators of SMAD7 expression” (Ionis Pharmaceuticals, Inc., priority 2017, dated 2019)
# Strand notation (5' to 3'): a small letter for the sugar, then the base; units joined by * are phosphorothioate-linked, units joined directly phosphodiester-linked; [ ] holds rarer units or linkages, { } end groups; capitals alone tell only the bases. k = constrained ethyl (cEt); [5mC] = 5-methylcytosine; d = 2'-deoxy (DNA)
# System: human SMAD7 mRNA
# Assay: Antisense inhibition of human SMAD7 mRNA expression in Hep3B cells by 3-10-3 cEt gapmers, 10,000 nM, electroporation (Example 2)
# Assay type: cell-based
# Settings: approximately 24 hours
# Protocol: Antisense oligonucleotides were designed to target human SMAD7 mRNA and were tested for their effects on SMAD7 mRNA expression in vitro. The antisense oligonucleotides were tested in a series of experiments that had similar culture conditions, as described below. ION 771576, described in the studies above and which is a 5-10-5 MOE gapmer, was also included in these assays. Cultured Hep3B cells at a density of 20,000 cells per well were transfected using electroporation with 10,000 nM antisense oligonucleotide. After a treatment period of approximately 24 hours, RNA was isolated from the cells and SMAD7 mRNA levels were measured by quantitative real-time PCR. Primer probe set RTS5062 was used to measure human SMAD7 mRNA levels. SMAD7 mRNA levels were adjusted according to total RNA content, as measured by RIBOGREEN®. Results are presented as percent inhibition of SMAD7 mRNA expression, relative to untreated control cells.
# The newly designed chimeric antisense oligonucleotides in the Tables below were designed as 3-10-3 cEt gapmers. The gapmers are 16 nucleosides in length, wherein the central gap segment comprises often 2′-deoxynucleosides and is flanked by wing segments on the 5′ direction and the 3′ direction comprising three nucleosides each. Each nucleoside in the 5′ wing segment and each nucleoside in the 3′ wing segment has a cEt sugar modification. The internucleoside linkages throughout each gapmer are phosphorothioate (P═S) linkages. All cytosine residues throughout each gapmer are 5-methylcytosines.
# “Start site” indicates the 5′-most nucleoside to which the gapmer is targeted in the human gene sequence. “Stop site” indicates the 3′-most nucleoside to which the gapmer is targeted human gene sequence. […] Some of the oligonucleotides presented were complementary to SMAD7 mRNA sequences RefSeqNo. NM_001190821.1 (designated herein as SEQ ID NO: 3) or RefSeqNo. NM_001190822.1 (designated herein as SEQ ID NO: 4), and are presented in a separate table shown below.
# [1] = Hep3B cells, 10,000 nM antisense oligonucleotide, electroporation, RT-PCR primer probe set RTS5062, relative to untreated control cells
# [2] = Hep3B cells, electroporation with 10,000 nM antisense oligonucleotide, primer probe set RTS5062, relative to untreated control cells
# [3] = Hep3B cells, electroporation with 10,000 nM antisense oligonucleotide, SMAD7 mRNA by RT-PCR (RTS5062), relative to untreated control cells
# [4] = Hep3B cells, electroporation with 10,000 nM antisense oligonucleotide, RTS5062, percent inhibition of SMAD7 mRNA relative to untreated control cells
# [5] = Hep3B cells, electroporation, 10,000 nM antisense oligonucleotide, RTS5062, relative to untreated control cells
# [6] = SMAD7 mRNA, Hep3B cells, 10,000 nM antisense oligonucleotide, electroporation, primer probe set RTS5062, relative to untreated control cells
# [7] = SMAD7 mRNA, Hep3B cells, electroporation with 10,000 nM antisense oligonucleotide, primer probe set RTS5062, relative to untreated control cells
substance,measurement,setting,value
772621 (kA*kA*k[5mC]*dT*dG*d[5mC]*dT*dG*d[5mC]*dG*dG*dT*dT*kG*kT*kA; antisense) [compound 772621],% Inhibition,[1],38%
799445 (antisense k[5mC]*k[5mC]*kT*dA*dA*dT*d[5mC]*dT*d[5mC]*dT*dT*dT*d[5mC]*kA*kT*k[5mC]) [compound 799445],% inhibition of SMAD7 mRNA expression,[2],28%
799465 (antisense kA*kG*k[5mC]*dT*d[5mC]*dT*dA*dG*dG*d[5mC]*d[5mC]*dA*d[5mC]*kT*k[5mC]*k[5mC]) [compound 799465],% inhibition of SMAD7 mRNA expression,[2],64%
799007 (kT*kG*k[5mC]*d[5mC]*dG*d[5mC]*dT*d[5mC]*d[5mC]*dT*dG*d[5mC]*dA*k[5mC]*kA*k[5mC]; antisense) [compound 799007],% inhibition of SMAD7 mRNA expression,[2],47%
798811 (k[5mC]*kA*kG*dA*dA*dG*dA*dA*dG*dT*dT*dG*dG*kG*kA*kA; antisense) [compound 798811],% Inhibition,[3],1%
798739 (antisense k[5mC]*kG*k[5mC]*d[5mC]*dT*dT*d[5mC]*dA*dG*dA*dT*d[5mC]*d[5mC]*kG*k[5mC]*k[5mC]) [compound 798739],% Inhibition,[3],37%
772610 (kG*kG*k[5mC]*dA*dA*dA*dA*dG*d[5mC]*d[5mC]*dA*dT*dT*k[5mC]*k[5mC]*k[5mC]; antisense) [compound 772610],% Inhibition,[3],34%
799529 (kG*kA*kA*dT*dT*dT*d[5mC]*dT*d[5mC]*dT*dT*dG*d[5mC]*kA*kT*kT; antisense) [compound 799529],% Inhibition,[4],27%
799588 (kA*kA*kA*dA*dA*dG*d[5mC]*d[5mC]*d[5mC]*dA*d[5mC]*d[5mC]*d[5mC]*kA*kT*k[5mC]; antisense) [compound 799588],% Inhibition,[4],44%
799306 (antisense kA*kA*kA*d[5mC]*dA*dG*d[5mC]*dA*dT*dG*dA*dA*dA*kG*kA*k[5mC]) [compound 799306],% inhibition of SMAD7 mRNA expression,[5],27%
799299 (antisense kA*kT*kT*d[5mC]*d[5mC]*dA*dA*dA*dA*dG*dG*d[5mC]*dT*kG*kA*k[5mC]) [compound 799299],% inhibition of SMAD7 mRNA expression,[5],42%
829728 (antisense kG*kG*k[5mC]*dG*d[5mC]*dA*dG*dG*d[5mC]*dG*dA*d[5mC]*dA*kG*k[5mC]*kA) [compound 829728],% Inhibition,[6],44%
830084 (kG*kA*kT*dA*d[5mC]*dA*d[5mC]*dT*dT*dA*dA*dT*d[5mC]*kA*kA*kA; antisense) [compound 830084],% Inhibition,[3],26%
798769 (k[5mC]*k[5mC]*kT*dG*dA*dG*dA*dT*d[5mC]*d[5mC]*dG*dG*d[5mC]*k[5mC]*kA*k[5mC]; antisense) [compound 798769],% Inhibition,[3],58%
799497 (antisense kA*kA*kG*dA*dA*d[5mC]*dT*d[5mC]*dT*d[5mC]*d[5mC]*dT*dA*kA*kG*k[5mC]) [compound 799497],% inhibition of SMAD7 mRNA expression,[2],0%
799114 (antisense k[5mC]*kA*kG*dG*dA*dT*dG*dG*dG*dA*dG*d[5mC]*dA*kG*kG*k[5mC]) [compound 799114],% Inhibition,[2],35%
799357 (k[5mC]*kA*k[5mC]*dA*dA*d[5mC]*dA*dG*dA*dA*dA*dA*dA*kT*kT*k[5mC]; antisense) [compound 799357],% Inhibition,[3],41%
800042 (kT*kG*kT*d[5mC]*dA*dG*d[5mC]*d[5mC]*dA*d[5mC]*d[5mC]*dT*dA*kG*kG*k[5mC]; antisense) [compound 800042],% Inhibition,[3],0%
799628 (kA*k[5mC]*kA*d[5mC]*dA*d[5mC]*dA*d[5mC]*dA*dA*dG*d[5mC]*dT*kT*kG*k[5mC]; antisense) [compound 799628],% Inhibition,[4],38%
829979 (kT*kG*kA*dT*dA*dT*dT*dT*dA*dG*d[5mC]*dT*dG*kT*k[5mC]*kA; antisense) [compound 829979],% Inhibition,[7],49%
799827 (antisense kA*kA*k[5mC]*dT*dA*d[5mC]*dA*dA*d[5mC]*d[5mC]*dT*dT*dT*kT*kT*kA) [compound 799827],% Inhibition,[4],26%
790871 (kT*kG*kT*dT*dA*dG*dG*dA*d[5mC]*d[5mC]*dT*dG*dG*kG*kA*kA; antisense) [compound 790871],% Inhibition,[6],39%
799579 (kA*kA*k[5mC]*d[5mC]*dT*dT*d[5mC]*d[5mC]*dG*dA*dA*dA*dG*kG*kA*k[5mC]; antisense) [compound 799579],% inhibition of SMAD7 mRNA expression,[5],51%
829740 (antisense k[5mC]*kT*kG*d[5mC]*dT*dA*dA*dG*dG*dA*dG*d[5mC]*dG*kA*kA*k[5mC]) [compound 829740],% Inhibition,[6],52%
790493 (kG*kT*kT*dG*dA*dT*d[5mC]*dT*dT*d[5mC]*d[5mC]*d[5mC]*dG*kT*kA*kA; antisense) [compound 790493],% Inhibition,[3],0%
799958 (antisense kG*kT*kG*dG*dA*dG*dA*dG*dT*dG*d[5mC]*dT*dG*k[5mC]*kA*k[5mC]) [compound 799958],% Inhibition,[1],23%
829925 (kA*kT*kG*d[5mC]*dT*d[5mC]*dA*dT*dT*dG*dA*dG*d[5mC]*kT*kA*kA; antisense) [compound 829925],% Inhibition,[7],37%
798729 (antisense kG*kA*k[5mC]*d[5mC]*dT*dT*dT*dG*dG*d[5mC]*dA*d[5mC]*d[5mC]*kT*k[5mC]*kG) [compound 798729],% inhibition of SMAD7 mRNA expression,[2],51%
799715 (antisense k[5mC]*k[5mC]*kT*d[5mC]*dA*dG*dG*dG*d[5mC]*dT*dG*d[5mC]*d[5mC]*kA*k[5mC]*k[5mC]) [compound 799715],% inhibition of SMAD7 mRNA expression,[5],32%
830184 (antisense kA*k[5mC]*kG*dG*dT*dT*dG*d[5mC]*d[5mC]*dT*d[5mC]*dA*dT*k[5mC]*k[5mC]*kT) [compound 830184],% Inhibition,[3],48%
799138 (antisense k[5mC]*k[5mC]*kA*dA*dA*dT*d[5mC]*d[5mC]*dT*dT*d[5mC]*dT*dT*kG*kG*kA) [compound 799138],% Inhibition,[2],7%
799441 (antisense k[5mC]*kT*kA*dG*dA*dA*dA*dA*dG*dT*dT*dA*dA*kG*kA*kG) [compound 799441],% inhibition of SMAD7 mRNA expression,[2],22%
799397 (antisense kA*kA*kA*dA*d[5mC]*dA*dG*dA*dG*d[5mC]*dT*dT*dG*kG*kT*kA) [compound 799397],% inhibition of SMAD7 mRNA expression,[2],27%
799229 (kA*kA*k[5mC]*dA*d[5mC]*d[5mC]*d[5mC]*dA*dT*dA*dG*dA*dA*kA*kA*kA; antisense) [compound 799229],% inhibition of SMAD7 mRNA expression,[2],22%
799788 (k[5mC]*kA*k[5mC]*dA*dA*d[5mC]*d[5mC]*dA*dA*dA*dG*d[5mC]*dA*kG*kA*kA; antisense) [compound 799788],% Inhibition,[4],59%
799095 (antisense kA*k[5mC]*k[5mC]*dT*dG*dA*dT*dG*dT*d[5mC]*dA*d[5mC]*d[5mC]*kA*kG*kG) [compound 799095],% Inhibition,[2],0%
798856 (kT*kG*k[5mC]*dG*dG*dT*dT*dG*dT*dA*d[5mC]*dA*d[5mC]*k[5mC]*k[5mC]*kA; antisense) [compound 798856],% Inhibition,[1],67%
830202 (antisense kT*k[5mC]*kT*dG*dA*dA*dG*dG*d[5mC]*dT*dA*d[5mC]*dA*k[5mC]*k[5mC]*kA) [compound 830202],% Inhibition,[3],50%
799262 (antisense k[5mC]*kT*k[5mC]*dT*dT*dT*dG*d[5mC]*d[5mC]*d[5mC]*d[5mC]*dA*dA*kA*kA*k[5mC]) [compound 799262],% inhibition of SMAD7 mRNA expression,[2],0%
798767 (kT*k[5mC]*k[5mC]*dG*dG*d[5mC]*d[5mC]*dA*d[5mC]*d[5mC]*dT*dG*dA*kA*k[5mC]*kA; antisense) [compound 798767],% Inhibition,[3],0%
